According to EP4745139A1, “COMPOUND FOR TREATING AND PREVENTING RESPIRATORY SYNCYTIAL VIRUS INFECTION DISEASES” (CSPC Zhongqi Pharmaceutical Technology (Shijiazhuang) Co., …, priority 2023, dated 2025):

Assays:
[1] = test system: RSV strain A2; experiment: Antiviral detection test against RSV strain A2 based on ELISA method (Hep-2 cells); format: cell-based, Respiratory Syncytial Virus; conditions: for IC50: human respiratory syncytial virus, RSV A2 virus strain, Hep-2 cells, ELISA OD450; for AK0529 IC50 / IC50 of the compounds of the present invention: ratio of IC50 values against RSV A2 virus strain, control compound AK0529
Protocol: Test Example 1: Antiviral detection test of small molecules against RSV strain A2 based on ELISA method
• Source of cell line: Nanjing Kebai Biotechnology Co., Ltd. • Cell type: human laryngeal carcinoma epithelial cells Hep-2
• 96-well culture plate (Cat.No. 3610, Corning Costar); • Fetal bovine serum (Cat.No. 10099-141, GIBCO); • DMEM medium (Cat.No. 11995500BT, GIBCO); • Envision 2104 microplate reader.
• 1. Day 1: The Hep-2 cells were seeded into a 96-well plate at a density of 1×10^4 cells/well; • 2. Day 2: • A. Compound dilution: The compound in the first well was diluted to 9 µM, and 3-fold gradient dilution was performed, with a total of 10 gradients; • B. The Hep-2 cell plate prepared on Day 1 was taken out from the incubator, the supernatant was discarded, and 100 PFU/well/50 µL of the RSV A2 virus was added to each well. The plate was stood at 37°C in a 5% CO2 incubator for 2 hours, the supernatant was aspirated and discarded, and then 100 µL of the gradient-diluted compound or DMEM maintenance medium containing 2% FBS was added to each well; • 3. Day 5: • A. Add fixative: The gradient-diluted compound or medium was discarded from the wells, and 100 µL/well of fixative (4% paraformaldehyde) was added. The plate was stood at room temperature for 10 minutes, and then was washed once with 250 µL PBS; • B. 100 µL/well of a blocking solution was added, and the plate was incubated at 37°C in a 5% CO2 incubator for 30 minutes; • C. After incubation, the detection antibody (Anti RSV Fpro) was added at 0.3 µg/50 µL/well (6 µg/mL), and the plate was incubated at 37°C in a 5% CO2 incubator for 1 hour; • D. After incubation, the HRP secondary antibody was added (diluted 10,000-fold with 0.2% BSA), and the plate was incubated at 37°C in a 5% CO2 incubator for 1 hour; • E. After incubation, the wells were washed for 4 times with PBST, 250 µL/well, each washing was allowed to stand for 5 minutes, and the liquid in the wells was shaken off after completion of the washing; • F. 100 µL/well of a development solution was added, the plate was incubated at room temperature in the dark for 20 minutes, and 50 µL/well of a reaction termination solution was added. The plate was tapped gently to mix the solutions, and the absorbance at 450 nm was measured using the microplate reader. • 4. Data analysis • Inhibition rate of the compound against the virus = 100% - (SC - CC)/(VC - CC) × 100% • SC: OD450 value of the sample (cells + test compound + virus) • CC: OD450 value of the normal growing cell control (cells) • VC: OD450 value of the virus growth control (cells + virus)
The software Graphpad Prism 6 was used, and the calculation formula XY-analysis/Nonlinear regression (curve fit)/Dose response-Inhibition/log (inhibition) vs. response-Variable slope (four parameters) was adopted to fit the IC50 curve and calculate the IC50 value.

[2] = Pharmacokinetic experiment in mice after intragastric administration (plasma and lung tissue, LC/MS/MS); format: in vivo; conditions: ICR, mouse, intragastric administration at 20 mg/kg; for concentration at 6 h: lung, oral, read-out: Lung tissue drug concentration at 6 h; for half-life: plasma, po
Protocol: The compounds of the present invention for intragastric administration were dissolved in a suitable solvent to form a clear solution or suspension.
Administration mode and dosage: The compounds of the present invention were administered intragastrically at 10 mg/kg or 20 mg/kg.
Number of animals: 3 ICR mice per group for intragastric administration.
Sample collection: For the intragastric administration group, 100 µL of blood was collected (using pre-heparinized 100 µL Capillary Blood Collection Tubes) from the orbital vein of mice at 0.25 h, 0.5 h, 1 h, 2 h, 4 h, and 6 h after administration and placed in heparin sodium anticoagulant tubes. Mice plasma samples were obtained by centrifugation at 3000 g for 10 minutes within 2 hours. For the intragastric administration group, clean blood was collected at 6-hour time point and then lung tissues were collected.
Sample treatment: Plasma and lung tissue homogenates were subjected to protein precipitation with methanol at a certain ratio, and the supernatant was taken and diluted with 50% methanol-water at a certain ratio for sample loading.
Sample detection: The drug concentration in plasma was detected by the LC/MS/MS method, and the drug-time curve was plotted. Pharmacokinetic parameters (such as T1/2(h)/AUC0-t) were calculated by non-compartmental model statistical moments to describe the pharmacokinetic behavior of the compounds in mice after administration.
Data processing: Pharmacokinetic parameters were calculated by WinNonlin.

[3] = test system: RSV; experiment: In vivo pharmacodynamic assay: mouse RSV infection model, lung viral load by plaque assay; set-up: species or system BALB/c mice; conditions: lung tissue, Day 5
Protocol: The compound of the present invention was dissolved in a suitable solvent to form a clear solution or suspension for intragastric administration. • Animals: BALB/c mice, 6-weeks old, female. • Establishment of in vivo RSV infection model: Mice were inoculated intranasally with the virus on Day 0, with an inoculation dose of 3.5 × 10^6 p.f.u. per mouse. • Grouping of animals: Animals were divided into a vehicle control group and an administration group, with 5 animals in each group.
Administration mode and dosage: The compound of the present invention was administered intragastrically at 100 mg/kg or 50 mg/kg, or the vehicle used for the compound of the present invention was administered intragastrically. The administration volume was 10 mL/kg.
Experimental procedure: Mice were inoculated intranasally with the virus on Day 0 at an inoculation dose of 3.5 × 10^6 p.f.u. per mouse. Mice were continuously treated with the compound of the present invention from Day 0 to Day 4 for 5 days at a dose of 50 mg/kg, once daily, via intragastric administration, with an administration volume of 10 mL/kg; the first administration was conducted 1 hour before virus inoculation. Alternatively, mice were treated once with the compound of the present invention on Day 0 at a dose of 100 mg/kg, via intragastric administration, with an administration volume of 10 mL/kg; the first administration was conducted 1 hour before virus inoculation. On Day 5, mice were euthanized, and lung tissue samples were collected. Animals were observed daily from Day 0 to Day 5, and the body weight, health status, and survival status were recorded.
Sample processing: After lungs were collected, they were quickly frozen in the HBSS* solution at a 10-fold weight-to-volume ratio (w:v (g:mL) = 1:10), and stored in a -80°C refrigerator for plaque assay to detect viral load.
Sample detection: Viral load in lung tissues was detected by plaque assay. […]

## Cc1ccc2nc(N3CCS(=O)(=NC4CCOC4)c4ccccc4C3)nc(N3CC[C@H](N)C3)c2c1 (stereo partly shown) [Example 4-67]
[1]
  IC50: < 10 nM
[2]
  concentration at 6 h: 8220 ng/g
  half-life: 2.16 h

## N[C@H]1CCN(c2nc(N3CCS(=O)(=NC4CC4)c4ccccc4C3)nc3ccc(C(F)F)cc23)C1 (stereo partly drawn) [Example 4-62, 4-(4-((S)-3-aminopyrrolidin-1-yl)-6-(difluoromethyl)quinazolin-2-yl)-1-(cyclopropylimino)-2,3,4,5-tetrahydro-benzo[f][1,4]thiazepine-1-oxide]
[1]
  IC50: < 10 nM
[2]
  concentration at 6 h: 53100 ng/g

## Cc1ccc2nc(N3CCS(=O)(=NC4CC4)c4ccccc4C3)nc(N3CC[C@@H](N)C3)c2c1 (stereo partly shown) [Example 4-12]
[1]
  IC50: < 10 nM
[2]
  concentration at 6 h: 29700 ng/g
  half-life: 6.44 h

## NC1CN(c2nc(N3CCS(=O)(=NC4CC4)c4ccccc4C3)nc3ccc(C(F)F)cc23)C1 (stereo not shown) [Example 4-17, 4-(4-(3-aminoazetidin-1-yl)-6-(difluoromethyl)quinazolin-2-yl)-1-(cyclopropylimino)-2,3,4,5-tetrahydro-benzo[f][1,4]thiazepine-1-oxide]
[1]
  IC50: < 10 nM
  AK0529 IC50 / IC50 of the compounds of the present invention: ratio ≥20
[2]
  concentration at 6 h: 75800 ng/g
  half-life: 5.29 h

## Cc1ccc2nc(N3CCS(=O)(=NC4CCOC4)c4ccccc4C3)nc(N3CC[C@@H](N)C3)c2c1 (stereo partly shown) [Example 4-43]
[1]
  IC50: < 10 nM
[2]
  concentration at 6 h: 19200 ng/g
  half-life: 2.33 h

## Cc1ccc2nc(N3CCS(=O)(=NC4CC4)c4ccccc4C3)nc(N3CC(N)C3)c2c1 (stereo not shown) [Example 4-76, 4-(4-(3-aminoazetidin-1-yl)-6-methylquinazolin-2-yl)-1-(cyclopropylimino)-2,3,4,5-tetrahydrobenzo[f][1,4]thiazepine-1-oxide]
[1]
  IC50: < 10 nM
  AK0529 IC50 / IC50 of the compounds of the present invention: ratio ≥20
[2]
  concentration at 6 h: 28800 ng/g

## Cc1ccc2nc(N3CCS(=O)(=NC4CC4)c4ccccc4C3)nc(N[C@H]3CNC[C@@H]3F)c2c1 (stereo partly drawn) [Example 4-24, 1-(cyclopropylimino)-4-(4-(((3S,4S)-4-fluoropyrrolidin-3-yl)amino)-6-methylquinazolin-2-yl)-2,3,4,5-tetrahydrobenzo[f][1,4]thiazepine-1-oxide]
[1]
  IC50: < 10 nM
  AK0529 IC50 / IC50 of the compounds of the present invention: ratio ≥20
[2]
  concentration at 6 h: 15400 ng/g
  half-life: 4.48 h

## Cc1ccc2nc(N3CCS(=O)(=NC4CC4)c4ccccc4C3)nc(N3CC4C(N)C4C3)c2c1 (stereo not shown) [Example 4-8, 4-(4-(6-amino-3-azabicyclo[3.1.0]hexan-3-yl)-6-methylquinazolin-2-yl)-1-(cyclopropylimino)-2,3,4,5-tetrahydro-benzo[f][1,4]thiazepine-1-oxide]
[2]
  concentration at 6 h: 25300 ng/g
  half-life: 10.8 h

## Cc1ccc2nc(N3CCS(=O)(=O)c4ccccc4C3)nc(NCC3(N)COC3)c2c1 [AK0529, reference compound]
[2]
  concentration at 6 h: 1210 ng/g
  half-life: 1.55 h
[3]; 50 mpk, BID, 5 days administration
  log (RSV Viral Load) Mean: 3.06

## Cc1ccc2nc(N3CCS(=O)(=NC4CC4)c4ccccc4C3)nc(NCC3(N)COC3)c2c1C (stereo not shown) [Example 4-15, 4-(4-(((3-aminooxetan-3-yl)methyl)amino)-5,6-dimethylquinazolin-2-yl)-1-(cyclopropylimino)-2,3,4,5-tetrahydro-benzo[f][1,4]thiazepine-1-oxide]
[2]
  concentration at 6 h: 5130 ng/g
  half-life: 1.61 h

## Cc1ccc2nc(N3CCS(=O)(=NC4CC4)c4ccccc4C3)nc(N3CC[C@H](N)C3)c2c1 (stereo partly shown) [Example 4-11]
[1]
  IC50: < 10 nM
[2]
  concentration at 6 h: 22700 ng/g
  half-life: 6.91 h
[3]; 50 mpk, QD, 5 days administration, value is the lower limit of detection for viral load
  log (RSV Viral Load) Mean: 2.30°
[3]; 100 mpk, QD, administration once
  log (RSV Viral Load) Mean: 2.48

## COCC(C)N=S1(=O)CCN(c2nc(N3CC[C@H](N)C3)c3cc(C)ccc3n2)Cc2ccccc21 (stereo partly shown) [Example 4-69]
[1]
  IC50: < 10 nM
[2]
  concentration at 6 h: 6010 ng/g
  half-life: 2.28 h

## N[C@@H]1CCN(c2nc(N3CCS(=O)(=NC4CC4)c4ccccc4C3)nc3ccc(C(F)F)cc23)C1 (stereo partly shown) [Example 4-28]
[1]
  IC50: < 10 nM

## N[C@H]1CCN(c2nc(N3CCS(=O)(=NCC4CCO4)c4ccccc4C3)nc3ccc(C(F)F)cc23)C1 (stereo partly drawn) [Example 4-74, 4-(4-((S)-3-aminopyrrolidin-1-yl)-6-(difluoromethyl)quinazolin-2-yl)-1-((oxetan-2-ylmethyl)imino)-2,3,4,5-tetrahydro-benzo[f][1,4]thiazepine-1-oxide]
[1]
  IC50: < 10 nM
  AK0529 IC50 / IC50 of the compounds of the present invention: ratio ≥20
[2]
  concentration at 6 h: 7170 ng/g
  half-life: 2.49 h

## Cc1ccc2nc(N3CCS(=O)(=NC4CC4)c4ccccc4C3)nc(N3CC(CN)C3)c2c1 (stereo not shown) [Example 4-9, 4-(4-(3-(aminomethyl)azetidin-1-yl)-6-methylquinazolin-2-yl)-1-(cyclopropylimino)-2,3,4,5-tetrahydro-benzo[f][1,4]thiazepine-1-oxide]
[1]
  IC50: < 10 nM
[2]
  concentration at 6 h: 5920 ng/g
  half-life: 6.21 h

## NC1(CNc2nc(N3CCS(=O)(=NC4CCC4)c4ccccc4C3)nc3ccc(C(F)F)cc23)COC1 (stereo not shown) [Example 4-16, 4-(4-(((3-aminooxetan-3-yl)methyl)amino)-6-(difluoromethyl)quinazolin-2-yl)-1-(cyclobutylimino)-2,3,4,5-tetrahydro-benzo[f][1,4]thiazepine-1-oxide]
[1]
  IC50: < 10 nM
  AK0529 IC50 / IC50 of the compounds of the present invention: ratio ≥20

## N[C@H]1CCN(c2nc(N3CCS(=O)(=NCCCO)c4ccccc4C3)nc3ccc(C(F)F)cc23)C1 (stereo partly shown) [Example 4-66]
[1]
  IC50: < 10 nM

## Cc1ccc2nc(N3CCS(=O)(=NCCCO)c4ccccc4C3)nc(N3CC[C@H](N)C3)c2c1 (stereo partly shown) [Example 4-64]
[1]
  IC50: < 10 nM
